Reference: patent US20100004275A1, “AGENT FOR SUPPRESSING DEVELOPMENT OF TOLERANCE TO NARCOTIC ANALGESICS” (KYOTO UNIVERSITY, priority 2004, published 2010)

Key:
[1] = system: V1a receptor knockout mice, V1b receptor knockout mice, and control mice; test: Tail-flick test, development of tolerance to morphine in V1a/V1b receptor knockout and control mice (Example 1); assay type: in vivo; settings: 10 mg/kg s.c. once a day for 15 days, FIG. 1
Method: V1a receptor knockout mice (Neuroscience Letters, 356, pp. 195-198, 2004), V1b receptor knockout mice (J. Clin. Invest., 113, pp. 302-309, 2004), and control mice (body weight: about 30 g) were subcutaneously (s.c.) given with 10 mg/kg of morphine hydrochloride once a day, which was repeated for 15 days. The analgesic effect was evaluated by the tail-flick test on 1st, 5th, 9th, 12th and 15th days after the administration on the basis of the maximal possible effect (% MPE), which represents analgesic intensity and is calculated in accordance with the following equation.
(§1) % MPE=100×[(Measured value after treatment−Measured value before treatment)[…](Cut-off value−Measured value before treatment)]

[2] = system: ddY mice; test: Tail-flick test, tolerance to morphine analgesic induced by repeated morphine, with V1 receptor antagonist i.c.v. (Example 2); assay type: in vivo; settings: male ddY mice; antagonist 0.5, 5 or 10 ng i.c.v. + morphine hydrochloride 10 mg/kg s.c. twice a day for 5 days; 1st, 3rd and 5th days; FIGS. 2 to 4
Method: as §1
Male ddY mice (5- or 6-week old) were intracerebroventricularly (i.c.v.) given with 5 μl of physiological saline or a V1 receptor antagonist (0.5, 5 or 10 ng), and immediately after the administration, the mice were subcutaneously given with 10 mg/kg of morphine hydrochloride, which was repeated twice a day for 5 days to induce tolerance to morphine analgesic. The analgesic effect was evaluated by the tail-flick test on 1st, 3rd and 5th days after the administration on the basis of intensity of analgesic effect using % MPE and AUC (area under the time-reaction curve, Area Under the Curve). As the V1 receptor antagonist, the following three types of antagonists were used.

CN1CC[C@]23c4c5ccc(O)c4O[C@H]2[C@@H](O)C=C[C@H]3[C@H]1C5.Cl [morphine, morphine hydrochloride]
development of tolerance to analgesic effect (% MPE) ([1]; V1a receptor knockout mice): tolerance to morphine was developed | development of tolerance to analgesic effect (% MPE) ([1]; V1b receptor knockout mice): remarkable resistance against tolerance to morphine was observed | development of tolerance to analgesic effect (% MPE) ([1]; control mice): tolerance to morphine was developed

[phenylacetyl, O-Me-D-Try, Arg, Lys]-vasopressin amide [PhAcALVP]
effect on development of tolerance to morphine (% MPE and AUC) [2]: had no effect on the tolerance development

[β-mercapto-β,β-cyclopentamethylenepropionyl, O-Me-Tyr, Arg]-vasopressin [d(CH2)5Tyr(Me)AVP]
effect on development of tolerance to morphine (% MPE and AUC) [2]: had no effect on the tolerance development

deamino-Pen, O-Me-Tyr, Arg]-vasopressin [dPenTyr(Me)AVP]
effect on development of tolerance to morphine (% MPE and AUC) [2]: suppressed the development of tolerance
